These results are taken from PMC11236999, “Antagonism of propofol anesthesia by alkyl-fluorobenzene derivatives” (Scientific Reports, 2024).

Entries after “also recorded” stand apart in the source; their conditions may differ. Where two headings read alike, the source gives them in different places.

The test system of series [1] is 5 dpf larval zebrafish. The experiment in a line: Zebrafish behavioral model of anesthesia, elicited movement (EM, tap stimulus). Type of series: in vivo. As to conditions: for Antagonism of propofol via EM: screen. The protocol:
(§1) Figure 2 Screening of PFAL compounds for antagonism of anesthesia. PFAL compounds were screened in 5 dpf zebrafish for their ability to antagonize the anesthetic effects of propofol (panels a, b, c and d) as well as sevoflurane and isoflurane (panels e and f). Each dot represents the data collected from one fish. Spontaneous movement (SM) is the distance of spontaneous swimming in a 4 min period, and elicited movement (EM) is distance moved in 1 s after exposure to a tap stimulus. Both measures were scaled to same-day DMSO controls. […] Mean and 95% CI are shown for each data set. Statistical comparison with both DMSO (D) only (black asterisks) and anesthetic control (Ctrl, gray asterisks) groups are shown. Note that each DMSO comparison is to the DMSO only control (sample on the furthest left of each graph, and the anesthetic control comparisons are made within each anesthetic grouping as indicated by the bars along the x-axis of each graph. ns: P > 0.05, *: P ≤ 0.05, **: P ≤ 0.01, ***: P ≤ 0.001, ****: P ≤ 0.0001).
(§2) Behavioral experiments (screening, EC50 curves) were performed as previously reported. Antagonism after induction was conducted in a similar manner with different timepoints and solution changes as indicated. The DanioVision Observation Chamber (Noldus) and Ethovision XT16 software were used to track and record (1280 × 960 resolution at 25 frames per second) larval zebrafish (5 dpf) movement in glass 96-well plates (Zissner North America 3,600,500). All experiments were performed at 28 °C with the DanioVision Temperature Control Unit. Zebrafish were allowed to equilibrate in E3 and 2% DMSO (with or without drug) for 10 min before being placed in the observation chamber for 22 min of recording. Two different endpoints were used to assess depth of anesthesia: spontaneous movement (SM) and elicited movement (EM). In these measures, fish movement was considered to be non-anesthetized. During each observation, fish were given time to acclimate to the chamber, and minutes 15–19 of the recording were used for analysis of SM. An EM response using the Daniovision tapping device (8 out of 8 intensity, movement response measured for 1 s after stimulus) was also measured at the end of the SM observation period. All recordings were scrutinized by a blind observer for technical errors in tracking to ensure accuracy of zebrafish detection and inaccurate tracking was excluded from further analysis. Toxicity was measured in separate experiments by exposing larvae to compounds for 30 min, transferring to fresh E3, and then observing mortality after exposure. […]

Series [2] concerns 5 dpf larval zebrafish. The series can be described thus: Zebrafish behavioral model of anesthesia, spontaneous movement (SM). It counts as in vivo. As to conditions: for Antagonism of propofol via SM: screen; for Antagonism of propofol via SM at 5 μM propofol: propofol 5 μM; for Spontaneous movement (SM), compound alone: PFAL compound alone at 10 and 30 μM, versus DMSO control. The method, then: as §1, §2

For series [3], the target named is T1, horse spleen apoferritin (HSAF) (Equus caballus, UniProt P02791).
T1 construct: model protein HSAF (horse spleen apoferritin); purchased Sigma-Aldrich; host or cells: horse spleen (tissue-derived)
T1 sequence (P02791 2-175 limits assumed): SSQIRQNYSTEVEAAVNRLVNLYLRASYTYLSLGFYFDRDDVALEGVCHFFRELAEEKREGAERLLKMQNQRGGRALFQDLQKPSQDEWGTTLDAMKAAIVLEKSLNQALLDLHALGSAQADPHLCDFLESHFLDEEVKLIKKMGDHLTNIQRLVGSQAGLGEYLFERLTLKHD
The series can be described thus: 1-Aminoanthracene (1-AMA) competition fluorescence assay. Type of series: binding.

The subject of series [4] is 5 dpf zebrafish. The series can be described thus: Antagonism of anesthesia after induction (sequential addition). Type of series: in vivo. The conditions noted are these: propofol 3 μM for 10 min, then propofol 3 μM plus 30 μM compound. The protocol:
In the above studies, the anesthetic and PFAL compounds were co-administered to the fish simultaneously.
Figure 5 Further Characterization of Propofol Antagonism with Compounds 9 and 10. a and b 5 dpf zebrafish (n = 36) were first anesthetized with 3 μM propofol and then 30 μM of either compound 9 or 10 was added. Between minutes 5 and 10 there is a small gap in the data during which the propofol solution was removed and a solution containing propofol and PFAL compound was added. […] The mean and 95% CI is shown for each data point in all panels.
Behavioral experiments (screening, EC50 curves) were performed as previously reported. Antagonism after induction was conducted in a similar manner with different timepoints and solution changes as indicated. The DanioVision Observation Chamber (Noldus) and Ethovision XT16 software were used to track and record (1280 × 960 resolution at 25 frames per second) larval zebrafish (5 dpf) movement in glass 96-well plates (Zissner North America 3,600,500). […] An EM response using the Daniovision tapping device (8 out of 8 intensity, movement response measured for 1 s after stimulus) was also measured at the end of the SM observation period. […] Toxicity was measured in separate experiments by exposing larvae to compounds for 30 min, transferring to fresh E3, and then observing mortality after exposure.

The conditions of series [5]: at 20°C; no reference given; cited from earlier work.
Series [6] concerns 5 dpf larval zebrafish. On the set-up: method as in PMID 32978423. As to conditions: 5 dpf zebrafish, previously determined; read-out: EC50 for SM of the anesthetic; cited from earlier work.
Series [7] can be described thus: HPLC concentration of volatile anesthetics in sealed glass 96-well plates over time. It counts as physicochemical. As to conditions: 3M 300LSE adhesive seal, 3-hour mark. The method, then:
Behavioral Experiments with Volatile Anesthetics. Solutions of inhaled volatile anesthetics were stored in glass vials with minimal head space and were transferred utilizing Hamilton gas-tight syringes to prevent evaporative loss. Isoflurane (Primal Care) was stored at 4°C, and sevoflurane (AbbVie Inc.) was stored at -20°C. Solutions were made in DMSO and then diluted in glass scintillation vials to the desired experimental concentrations in E3 (embryo water). Each vial contained 22 mL of E3 which minimized head space to prevent drug loss. Vials were sealed quickly after addition of volatile anesthetics to minimize loss. Solutions were mixed via vortexing, and anesthetics dissolved readily in the final DMSO concentration of 2%. […]
have a significant change in zebrafish behavior. To assure consistent concentration of volatile anesthetic, this experiment was repeated without fish and concentrations were measured by HPLC. […]
1-Aminoanthracene Competition Fluorescence Assay. […] After filtration, the 1-AMA concentration was determined by UV−vis spectroscopy utilizing an experimentally determined extinction coefficient of 1-AMA (Σ368 = 4073 M−1 cm−1).4 Stock solutions of ligand were prepared in DMSO. […] The fluorescence curves were corrected by subtracting contributions from 1-AMA alone and HSAF alone. Fluorescence intensities at 515 nm were plotted as a percentage […]

Series [8] deals with 5 dpf larval zebrafish. On the set-up: method as in PMID 32978423. The conditions noted are these: 5 dpf zebrafish, previously determined; read-out: EC50 for EM of the anesthetic; cited from earlier work.
[9] abbreviates: 10 μM PFAL compound co-administered with propofol.
Setting [10] is: 30 μM PFAL compound co-administered with propofol (0.3, 1, 5 μM).

With `CC(C)(C)c1ccccc1F` [Compound 11, 1-tertbutyl-2-fluorobenzene], in series [1] (setting [9]), the “Antagonism of propofol via EM” value was “not to be statistically different than the propofol controls”.

Usually IC50 stands for the midpoint of a concentration-inhibition curve. As to `CC(C)c1ccc(C(C)C)c(F)c1` [Compound 10, 1,4-diisopropyl-2-fluorobenzene], the “Antagonism of propofol via SM” value is reported as “demonstrated antagonism of propofol” in series [2] (setting [9]) and “showed antagonism of propofol; also recorded: statistically significant antagonism” in series [2] (setting [10]). The “Antagonism of propofol via SM at 1 μM propofol” value in series [2] (10 μM PFAL compound, propofol 1 μM) was “able to antagonize propofol”. Moreover, the “Antagonism of propofol via SM at 5 μM propofol” value is “did not show antagonism” in series [2] (10 μM PFAL compound) and “antagonized propofol” in series [2] (30 μM PFAL compound). For the same compound, the IC50 in series [2] (Danio rerio, 120 h, 5 dpf zebrafish exposed to 3 μM propofol, Fig. 5d, read-out: IC50 (antagonism of propofol)) came out at 25.3 µM. The “Spontaneous movement (SM), compound alone” value in series [2] is “increased SM”. In addition, the “Increase of propofol EC50 versus propofol alone, spontaneous movement” value in series [2] (propofol plus 30 μM compound, Fig. 4a) is given as “~ fourfold”. Further, the “Elicited movement (EM), compound alone” value in series [1] (PFAL compound alone at 10 and 30 μM, versus DMSO control) was “increased EM”. For the same compound, the “Schild-type analysis with EM” value in series [1] (propofol EC50 curves (EM) at various concentrations of the compound, Fig. S6) was “no such relationship of antagonism was observed”. In series [3] (15 μM 1-AMA, 15 μM HSAF dimer, ligand 1 to 125 μM), the “Inhibition of 1-AMA binding to HSAF” value is on record as “most potent inhibitors of 1-AMA binding”. In series [3] (Fig. 6b), the “Shape of IC50 curve for 1-AMA displacement” value is “incomplete inhibition of 1-AMA binding”. For the same compound, the “Reversal of established propofol immobility” value in series [4] is “rapid reversal of propofol immobility”.

As a reminder, the EC50 is the concentration needed to bring the measured effect to its halfway point. For `FCOC(C(F)(F)F)C(F)(F)F` [Sevoflurane], the Vapor pressure in series [5] was 157 mmHg. Also, the EC50 in series [6] is 76 µM; in series [8], 240 µM. Also, the “Concentration remaining in sealed glass 96-well plate” value in series [7] is “constant”.

As to `CCc1ccc(CC)c(F)c1` [Compound 7, 1,4-diethyl-2-fluorobenzene], in series [2] (setting [10]), the “Antagonism of propofol via SM” value was “showed antagonism of propofol; also recorded: statistically significant antagonism”. In series [2], the “Spontaneous movement (SM), compound alone” value is on record as “increased SM”. In addition, the “Antagonism of propofol via EM” value in series [1] (30 μM PFAL compound co-administered with propofol) is given as “did not antagonize propofol”.

With `CC(C)(C)c1ccc(C(C)(C)C)c(F)c1` [Compound 13, 1,4-ditertbutyl-2-fluorobenzene], the “Log(IC50), displacement of 1-AMA from HSAF” value in series [3] (Fig. 6a, nb = non-binding) is “nb”.

Take `C1CCc2nnnn2CC1` [Pentylenetetrazole, pentylenetetrazole, reference compound]: the Pattern of movement entry in series [2] (known epileptogenic comparator) is recorded as “uncontrolled movement (seizure)”.

For the compound `Cc1ccccc1F` [Compound 2, 1-methyl-2-fluorobenzene], the “Antagonism of propofol via EM” value in series [1] (setting [9]) is listed as “not to be statistically different than the propofol controls”.

With `FC(F)OC(Cl)C(F)(F)F` (centres unmarked) [Isoflurane], in series [5], the Vapor pressure is on record as 238 mmHg. Also, the EC50 in series [6] was 42 µM; in series [8] it was 180 µM. In addition, the “Concentration remaining in sealed glass 96-well plate” value in series [7] is on record as 96%.

As to `CC(C)c1cccc(C(C)C)c1O` [Propofol], the EC50 was 0.14 µM in series [2] (Danio rerio, propofol alone, Fig. 4a); 0.1 µM in series [6]; 3.53 µM in series [1] (Danio rerio, propofol alone, Fig. 4b); 3.8 µM in series [8].
